This is an account of results in patent US12728168B2, “Anti-CEA antibody-exatecan analog conjugate and pharmaceutical use thereof” (JIANGSU HENGRUI MEDICINE CO., LTD., priority 2019, dated 2026).

In assay [1] the test system is U87MG cells. As to the kind of experiment: Inhibition of in vitro proliferation of U87MG cells (CTG). The format is cell-based. As to conditions: Homo sapiens, U-87 MG, 6 days of culture, read-out: IC50 (nM) U87. As to the method: (§1) This experiment was intended to test the inhibitory activity of the pharmaceutical compounds of the present disclosure against the in vitro proliferation of U87MG cells (Cell Bank, Chinese Academy of Sciences, Cat #TCHu138) and SK-BR-3 tumor cells (human breast cancer cells, ATCC, Cat #HTB-30). The cells were treated in vitro with a compound at different concentrations. After 6 days of culture, the proliferation of cells was tested using CTG (CellTiter-Glo® Luminescent Cell Viability Assay, Promega, Cat #G7573) reagents, and the in vitro activity of the compound was evaluated according to IC50 value.
(§2) The test for the inhibition of the in vitro proliferation of U87MG cells was taken as an example to illustrate the method of the present invention for testing the inhibitory activity of the compounds of the present invention against the in vitro proliferation of tumor cells. […]
(§3) Different test samples at 100 nM or 5 μM (100 μL) were added to the first column of a 96-well plate, and 100 μL of PBS was added to each well of the second column through the eleventh column. […] Plate reading: the 96-well cell culture plate was taken out and tested in a microplate reader (BMG labtech, PHERAstar FS) for chemiluminescence. […]
(§4) Data were processed and analyzed using Microsoft Excel and Graphpad Prism 5.

The subject of assay [2] is SK-BR-3 tumor cells (human breast cancer cells). As to the kind of experiment: Inhibition of in vitro proliferation of SK-BR-3 cells (CTG). As to conditions: 6 days of culture. In kind it is cell-based. As for the experimental part:
as §1, §2, §3, §4

The target in assay [3] is T1, human CEACAM1 expressed on CHO cell surface (CEACAM1-CHO) (Homo sapiens, UniProt P13688).
T1 construct: expressed in transfected cells; host or cells: CHO cells
T1 sequence (P13688 35-526): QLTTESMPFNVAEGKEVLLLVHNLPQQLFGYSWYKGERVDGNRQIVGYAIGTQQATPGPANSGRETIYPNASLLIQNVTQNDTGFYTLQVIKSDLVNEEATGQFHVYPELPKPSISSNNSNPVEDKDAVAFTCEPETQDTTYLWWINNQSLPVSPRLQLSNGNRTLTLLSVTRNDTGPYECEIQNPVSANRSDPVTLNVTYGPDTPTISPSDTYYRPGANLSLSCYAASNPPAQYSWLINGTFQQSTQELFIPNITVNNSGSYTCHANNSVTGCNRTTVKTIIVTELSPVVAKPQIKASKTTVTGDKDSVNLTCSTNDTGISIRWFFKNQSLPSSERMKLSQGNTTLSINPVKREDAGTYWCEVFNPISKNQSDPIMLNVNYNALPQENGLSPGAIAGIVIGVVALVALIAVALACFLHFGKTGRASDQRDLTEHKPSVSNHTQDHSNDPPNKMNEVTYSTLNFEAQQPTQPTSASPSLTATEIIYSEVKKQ
Nature of the assay: FACS binding assay, CEACAM1-CHO cells. As to the method: In order to detect the binding of the antibody to the CEA protein on the cell surface, the binding activity of the antibody was determined by FACS using cells expressing CEA on the cell surface. Cells were harvested and centrifuged at 400 g at 4° C. for 5 min. Pre-cooled PBS containing FBS at final concentration 10% was added, and the mixture was centrifuged at 400 g at 4° C. for 5 min; the procedures were repeated twice. The cells were seeded into a 96-well plate at 10^5 cells/well, and 100 μL of gradient diluted antibody solution was added to each well. The plate was incubated at 4° C. for 60 min and centrifuged, and the supernatant was removed. 250 μL of pre-cooled PBS containing FBS at final concentration 10% was added to each well to resuspend the cells, and the suspension was centrifuged at 400 g at 4° C. for 5 min, followed by the removal of the supernatant; the procedures were repeated twice. 50 μL of 1:200 diluted secondary antibody Alexa Fluor@488 goat anti-human IgG (H+L) (Lifetechologies, Cat #A11013) was added. The plate was incubated in the dark at 4° C. for 45 min and centrifuged, and the supernatant was removed. 250 μL of pre-cooled PBS containing FBS at final concentration 10% was added to each cell to resuspend the cells, and the suspension was centrifuged at 400 g at 4° C. for 5 min; the procedures were repeated twice. 100 μL of pre-cooled PBS was added to each well to resuspend the cells. The plate was analyzed by a flow cytometer (BD, FACSverse) for fluorescence signal values. Higher values indicate higher binding activity of the antibody to the protein on the cell surface. Binding curves were plotted using PRISM analysis software based on the assay results, and the EC50 values for the binding activity of the antibody to the cell surface proteins human CEA (MKN45 human gastric cancer cells, Nanjing Kebai Biotechnology Co., Ltd., Cat #CBP60488), cynoCEA-CHO and CEACAM1-CHO were obtained by fitting.
Background: In flow cytometry, cells or beads pass a laser one at a time.

Usually IC50 stands for the concentration that gives 50% inhibition. As to `CC[C@@]1(O)C(=O)OCc2c1cc1n(c2=O)Cc2c-1nc1cc(F)c(C)c3c1c2[C@@H](NC(=O)[C@@H](O)C1CC1)CC3` [1-A, (S)-2-cyclopropyl-N-((1S,9S)-9-ethyl-5-fluoro-9-hydroxy-4-methyl-10,13-dioxo-2,3,9,10,13,15-hexahydro-1H,12H-benzo[de]pyrano[3′,4′:6,7]indolizino[1,2-b]quinolin-1-yl)-2-hydroxyacetamide], the concentration for half-maximal inhibition (IC50) in assay [1] was determined as 2.31 nM; in assay [2], 8.11 nM.
In the case of “Sanofi: the antibody in SAR-408701 (Sanofi), heavy chain SEQ ID NO: 88, light chain SEQ ID NO: 89; positive control [reference compound]”, the “EC50 (nM) CEACAM1-CHO” value in assay [3] (Table 17, humanized antibodies and controls) is recorded as “No binding”.
Take `CC[C@@]1(O)C(=O)OCc2c1cc1n(c2=O)Cc2c-1nc1cc(F)c(C)c3c1c2[C@@H](NC(=O)[C@H](O)C1CC1)CC3` [1-B, (R)-2-cyclopropyl-N-((1S,9S)-9-ethyl-5-fluoro-9-hydroxy-4-methyl-10,13-dioxo-2,3,9,10,13,15-hexahydro-1H,12H-benzo[de]pyrano[3′,4′:6,7]indolizino[1,2-b]quinolin-1-yl)-2-hydroxyacetamide]: the IC50 in assay [1] is 0.86 nM; in assay [2], 0.33 nM.

B1: mAb67: murine anti-CEA monoclonal antibody, VH SEQ ID NO: 11, VL SEQ ID NO: 12 (antibody, V domains shown)
VH: EVQLQQSGPELVKPGASVKIYCKASGYTFTDYHMNWVKQSHGKSLEWIGDINPDIGGTSYNQNFKGKATLTVDKSSSTAYMELRSLTSEDSAVYYCSRWDFDSFANWGQGTLVTVSA
VL: DIVMTQSPASLAMSLGKRATISCRASESVSIIGTNLIHWYQQKPGQPPKLLIYHASNLETGVPARFSGSGSGADFTLTIDPVEGDDVALYYCLQSRKIPYTFGGGTKMEIK
For the molecule B1, the “EC50 (nM) CEACAM1-CHO” value in assay [3] (Table 1, murine antibodies) is listed as “No binding”.

B2: mAb63: murine anti-CEA monoclonal antibody, VH SEQ ID NO: 9, VL SEQ ID NO: 10 (antibody, V domains shown)
VH: EVQLQQSGPELVKPGASVKMSCKASGYTFTDFYMNWVRQSHGKSLEWIGDIFPKNGNTDYNRKFKDKATLTVDKSSNTVYMEFRSLTLEDSAIYFCARSGYGNYVFDYWGQGTIFTVSS
VL: DVQMTQTPSALSASLGDRVTISCRTSQDINIYLNWYQQKPDGTVKLLIYYRSGLLSGVPSRFSGSGSGTDYSLTISNLEPEDIATYFCQQGNTLPPTFGGGTKLEIK
B2: the “EC50 (nM) CEACAM1-CHO” value in assay [3] (Table 1, murine antibodies) was “No binding”.

B3: mAb103: murine anti-CEA monoclonal antibody, VH SEQ ID NO: 13, VL SEQ ID NO: 14 (antibody, V domains shown)
VH: QIQLVQSGPELKKPGETVKISCKASGYTFTTYGVIWVKQAPGKGLKWMGWINTYSGVPTYADDFKGRFAFSLETSASTAFLQINNLKNEDTATYFCARKKTLTTVTPWFAYWGQGTLVTVSA
VL: DLVVTQSSSASFSLGASAKLTCTLSSQHSTYTIEWYQQQPLKPPKYVMELKKDGSHSTGDGIPDRFSGSSSGADRYLTISNIQPEDEAIYICGVGNTIKEQFVYVFGGGTKVTVL
Consider B3, for which the “EC50 (nM) CEACAM1-CHO” value in assay [3] (Table 1, murine antibodies) was “No binding”.
